Experimental findings from patent US5276023A, “19-nor-steroid esters” (Roussel Uclaf, priority 1989, dated 1994) are described below.

For one experiment, the target named is T1, Androgen receptor (Rattus norvegicus, UniProt P15207).
T1 construct: The prostates were removed, weighed and homogenized; from tissue; host or cells: prostate cytosol (105,000 g supernatant) of castrated male rats
T1 sequence (P15207 1-902): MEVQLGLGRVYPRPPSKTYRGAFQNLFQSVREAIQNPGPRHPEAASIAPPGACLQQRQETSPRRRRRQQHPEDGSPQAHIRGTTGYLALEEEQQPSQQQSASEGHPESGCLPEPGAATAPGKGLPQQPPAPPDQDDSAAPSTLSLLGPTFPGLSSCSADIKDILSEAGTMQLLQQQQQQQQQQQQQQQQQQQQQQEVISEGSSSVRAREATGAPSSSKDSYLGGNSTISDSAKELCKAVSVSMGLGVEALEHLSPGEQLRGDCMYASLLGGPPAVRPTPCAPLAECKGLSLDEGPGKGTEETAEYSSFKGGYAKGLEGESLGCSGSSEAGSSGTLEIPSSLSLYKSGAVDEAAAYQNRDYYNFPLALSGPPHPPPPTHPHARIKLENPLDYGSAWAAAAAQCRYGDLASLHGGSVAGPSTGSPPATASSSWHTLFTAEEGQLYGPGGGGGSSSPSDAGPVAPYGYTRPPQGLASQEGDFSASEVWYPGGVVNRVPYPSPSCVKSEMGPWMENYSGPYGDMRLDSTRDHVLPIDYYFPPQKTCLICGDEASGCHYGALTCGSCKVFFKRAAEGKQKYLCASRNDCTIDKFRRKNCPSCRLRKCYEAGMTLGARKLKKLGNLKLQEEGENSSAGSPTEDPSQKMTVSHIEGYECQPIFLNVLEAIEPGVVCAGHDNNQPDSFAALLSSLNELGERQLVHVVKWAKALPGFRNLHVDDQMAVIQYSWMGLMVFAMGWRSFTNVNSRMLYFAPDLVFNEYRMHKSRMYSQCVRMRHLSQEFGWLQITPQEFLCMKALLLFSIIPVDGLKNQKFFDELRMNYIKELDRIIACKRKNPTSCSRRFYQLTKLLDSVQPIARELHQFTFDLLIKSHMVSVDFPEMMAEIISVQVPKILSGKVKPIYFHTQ
Description: relative bond affinity for the androgen receptor of rat's prostate. The experiment is classed as binding. The following applies: tritiated testosterone, RBA=100 (CH)/(CX), reference cold testosterone; for relative bond affinity (RBA), Androgen 0,5H: half an hour incubation at 0° C.; for relative bond affinity (RBA), Androgen: incubation at 0° C. On the procedure: (§1) 1) Measurement of the relative bond affinity for the receptors of steroid hormones:
Androgen receptor of rat's prostate
Male rats weighing 160 to 200 g were castrated and 24 hours after the castration, the animals were killed. The prostates were removed, weighed and homogenized at 0° C. using a Potter teflon-flask in a (TSDPM) 10 mM Tris, 0.25M saccharose, […] phenylmethanesulfonylfluoride, 20 mM molybdate, 2 mM dithiothreitol, HCl pH 7.4 buffer (1 g of tissue per 5 ml of TSDPM). The homogenate was ultracentrifuged (105,000 g×60 mn) at 0° C. and aliquots of the supernatant "cytosol", were incubated at 0° C. with a constant concentration in the presence of increasing concentrations (0-1000 nM) of cold testosterone or of the product under test. […]
(§2) Calculation of the relative bond affinity:
(§3) The calculation of the relative bond affinity (RBA) was identical for all receptors. The following two curves were drawn: the percentage of bonded tritiated hormone B/T as a function of the logarithm of the concentration of the cold reference hormone and B/T as a function of the logarithm of the concentration of the cold product under test. The straight line of the equation:
(§4) B max=Percentage of bonded tritiated hormone for an incubation of this tritiated hormone at the concentration (T).
(§5) B min=Percentage of bonded tritiated hormone for an incubation of this tritiated hormone at the concentration (T) in the presence of a great excess of cold hormone (2500×10^-9 M).
(§6) The intersections of the straight line I50 and the curves allowed the evaluation of the concentrations of the cold reference hormone (CH) and of the cold product under test (CX) which inhibited by 50% the bonding of the tritiated hormone on the receptor. The relative bond affinity (RBA) of the product under test was determined by the equation RBA=100 (CH)/(CX)

A further experiment concerns the target T2, Progesterone receptor (Oryctolagus cuniculus, UniProt P06186).
T2 construct: from tissue; host or cells: uterus cytosol (105,000 g supernatant) of impuberal female rabbits treated with estradiol
T2 sequence (P06186 1-930): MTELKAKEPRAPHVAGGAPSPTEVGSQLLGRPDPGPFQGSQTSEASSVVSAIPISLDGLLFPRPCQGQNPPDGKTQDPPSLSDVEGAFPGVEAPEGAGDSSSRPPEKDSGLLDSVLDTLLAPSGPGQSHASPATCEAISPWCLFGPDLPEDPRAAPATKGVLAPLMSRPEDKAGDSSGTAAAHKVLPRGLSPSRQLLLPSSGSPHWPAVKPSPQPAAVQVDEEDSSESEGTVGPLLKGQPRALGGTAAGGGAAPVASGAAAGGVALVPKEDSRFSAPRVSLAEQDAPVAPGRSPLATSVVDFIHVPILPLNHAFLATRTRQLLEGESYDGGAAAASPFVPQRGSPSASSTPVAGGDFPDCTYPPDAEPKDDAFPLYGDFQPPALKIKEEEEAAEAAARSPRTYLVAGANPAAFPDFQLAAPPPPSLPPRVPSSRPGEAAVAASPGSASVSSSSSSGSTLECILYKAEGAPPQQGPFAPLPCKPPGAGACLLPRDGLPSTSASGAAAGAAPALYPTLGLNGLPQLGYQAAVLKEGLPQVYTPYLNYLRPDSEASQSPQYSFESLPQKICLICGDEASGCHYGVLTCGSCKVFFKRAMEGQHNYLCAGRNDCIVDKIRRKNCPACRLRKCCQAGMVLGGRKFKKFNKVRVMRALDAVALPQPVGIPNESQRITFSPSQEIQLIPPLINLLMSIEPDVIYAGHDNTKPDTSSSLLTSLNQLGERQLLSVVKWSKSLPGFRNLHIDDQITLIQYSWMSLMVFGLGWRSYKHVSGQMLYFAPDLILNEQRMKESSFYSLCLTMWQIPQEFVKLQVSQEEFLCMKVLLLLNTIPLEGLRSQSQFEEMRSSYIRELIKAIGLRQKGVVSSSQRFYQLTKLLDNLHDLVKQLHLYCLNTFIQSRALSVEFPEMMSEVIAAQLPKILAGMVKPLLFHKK
Description: relative bond affinity for the progesterone receptor of rabbit's uterus. The class given is binding. The following applies: for relative bond affinity (RBA), Progesterone 2H: 2 hours incubation at 0° C.; for relative bond affinity (RBA), Progesterone 2H / relative bond affinity (RBA), Progesterone 24H: tritiated R 5020 5 nM, RBA=100 (CH)/(CX), reference cold progesterone; for relative bond affinity (RBA), Progesterone 24H: 24 hours incubation at 0° C.; for antiprogesterone activity: conclusion in words from the receptor binding study. On the procedure:
as §1
Progesterone receptor of rabbit's uterus:
Impuberal female rabbits weighing about 1 kg received a cutaneous application of 25 ug of estradiol and five days after this treatment, the animals were killed and the uteruses were removed, weighed and homogenized at 0° C. using a Potter teflon-flask in a (TS) 10 mM Tris, 0.25M saccharose, HCl pH 7.4 buffer (1 g of tissue per 50 ml of TS). The homogenate was then ultra-centrifuged (105,000 g×90 mn) at 0° C. […] The concentration of bonded tritiated R 5020 (B) was then measured in each incubate by the technique of adsorption with carbon-dextran.
as §2, §3, §4, §5, §6

Consider `CN(C)c1ccc([C@H]2C[C@@]3(C)[C@@H](CC[C@@]3(O)C#CCOC(=O)CCC(=O)O)[C@@H]3CCC4=CC(=O)CCC4=C32)cc1` [Example 4, Sodium and 3-[11β-[4-dimethylamino-phenyl]-Δ^4,9-estradien-17β-ol-3-one-17α-yl]-2-propynyl succinate], for which, on Androgen receptor, the “relative bond affinity (RBA), Androgen 0,5H” value was 5,1 and the “relative bond affinity (RBA), Androgen” value was 2,8. Also, at Progesterone receptor, the “relative bond affinity (RBA), Progesterone 2H” value is listed as 14 and the “relative bond affinity (RBA), Progesterone 24H” value is 26.
On to `CN(C)c1ccc([C@H]2C[C@@]3(C)[C@@H](CC[C@]3(C#CCl)OC(=O)CCC(=O)O)[C@@H]3CCC4=CC(=O)CCC4=C32)cc1` [Example 10, Sodium and 21-chloro-11β-[4-dimethylamino-phenyl]-19-nor-17α-Δ^4,9-pregnadien-3-one-20-yn-17β-yl succinate], for which, on Androgen receptor, the “relative bond affinity (RBA), Androgen 0,5H” value is listed as 1,9 and the “relative bond affinity (RBA), Androgen” value was 8,6. In addition, at Progesterone receptor, the “relative bond affinity (RBA), Progesterone 2H” value was 3; the “relative bond affinity (RBA), Progesterone 24H” value was found to be 13; the antiprogesterone activity result is given as “good”.
For the molecule `CN(C)c1ccc([C@H]2C[C@@]3(C)[C@@H](CC[C@@]3(O)/C=C\COC(=O)CCC(=O)O)[C@@H]3CCC4=CC(=O)CCC4=C32)cc1` [Example 2, Sodium (Z)-3-[11β-[4-dimethylamino-phenyl]-Δ^4,9-estradien-17β-ol-3-one-17α-yl]-2-propenyl succinate], at Androgen receptor, the “relative bond affinity (RBA), Androgen 0,5H” value came out at 12 and the “relative bond affinity (RBA), Androgen” value is given as 39. Also, on Progesterone receptor, the “relative bond affinity (RBA), Progesterone 2H” value is reported as 21 and the “relative bond affinity (RBA), Progesterone 24H” value is reported as 88.
Take `CC#C[C@]1(OC(=O)CCC(=O)O)CC[C@H]2[C@@H]3CCC4=CC(=O)CCC4=C3[C@@H](c3ccc(SC)cc3)C[C@@]21C` [Example 12, Sodium and 11β-[4-methylthio-phenyl]-17α-(1-propynyl)-Δ^4,9 estradien-3-one-17β-yl succinate]: on Androgen receptor, the “relative bond affinity (RBA), Androgen 0,5H” value is on record as 0,8 and the “relative bond affinity (RBA), Androgen” value is on record as 0,3. Also, on Progesterone receptor, the “relative bond affinity (RBA), Progesterone 2H” value is 1,2; the “relative bond affinity (RBA), Progesterone 24H” value is given as 3,6; the antiprogesterone activity result is on record as “good”.
As for `CC#C[C@]1(OC(=O)CCC(=O)O)CC[C@H]2[C@@H]3CCC4=CC(=O)CCC4=C3[C@@H](c3ccc(N(C)C)cc3)C[C@@]21C` [Example 6, Sodium 11β-[4-dimethylamino-phenyl]17α-(1-propynyl)-Δ^4,9 - estradien-3-one-17β-yl succinate], on Androgen receptor (listed as EX. 6), the “relative bond affinity (RBA), Androgen 0,5H” value was 2,2 and the “relative bond affinity (RBA), Androgen” value is listed as 4,1. Moreover, the “relative bond affinity (RBA), Progesterone 2H” value at Progesterone receptor is 2. In addition, the “relative bond affinity (RBA), Progesterone 24H” value on Progesterone receptor (listed as EX. 6) is recorded as 6.
`CC#C[C@]1(OC(=O)CCC(=O)O)CC[C@H]2[C@@H]3CCC4=CC(=O)CCC4=C3[C@@H](c3ccc(N(C)C)cc3)C[C@@]21C` [Example 5, 11β-[4-dimethylamino-phenyl]-17-(1-propynyl)-Δ^4,9-estradien-3-one-17β-yl acid succinate]: on Androgen receptor (listed as EX. 5), the “relative bond affinity (RBA), Androgen 0,5H” value is reported as 0,6 and the “relative bond affinity (RBA), Androgen” value is recorded as 1. Moreover, the “relative bond affinity (RBA), Progesterone 2H” value on Progesterone receptor was 2. Besides, at Progesterone receptor (listed as EX. 5), the “relative bond affinity (RBA), Progesterone 24H” value is 8.
